Results on six molecules are retold here after patent US7968534B2, “Sulfonamide derivatives, preparation thereof and use thereof as antagonists of orexin 2 receptors” (Sanofi-Aventis, priority 2006, dated 2011).

Counter-ions that a name gives are not always drawn. Like-named read-outs stand apart in the source and are kept apart here.

The target in experiment [1] is T1, human orexin 2 receptors (Homo sapiens, UniProt O43614).
T1 construct: expressed in transfected cells; host or cells: CHO cells (membranes)
T1 sequence (O43614 1-444): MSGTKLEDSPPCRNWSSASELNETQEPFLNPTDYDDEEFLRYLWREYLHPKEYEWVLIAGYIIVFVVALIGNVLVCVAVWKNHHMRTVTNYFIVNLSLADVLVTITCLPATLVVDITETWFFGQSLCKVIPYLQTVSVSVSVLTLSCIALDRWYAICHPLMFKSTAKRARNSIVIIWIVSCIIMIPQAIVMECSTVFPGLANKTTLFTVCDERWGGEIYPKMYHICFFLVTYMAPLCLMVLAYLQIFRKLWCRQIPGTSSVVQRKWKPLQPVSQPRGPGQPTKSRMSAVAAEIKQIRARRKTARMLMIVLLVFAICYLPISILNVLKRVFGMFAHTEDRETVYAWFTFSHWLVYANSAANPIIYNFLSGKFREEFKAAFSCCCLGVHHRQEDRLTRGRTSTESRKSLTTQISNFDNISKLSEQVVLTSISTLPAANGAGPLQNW
Description: in vitro binding test: displacement of radioiodinated orexin A, membranes of CHO cells. The conditions noted are these: read-out: IC50 OX 2. As for the experimental part: (§1) They were in particular tested for their effects. […] This method consists in studying the displacement of radioiodinated orexin A attached to the human orexin 2 receptors expressed in CHO cells. The test is performed on membranes in a 50 mM Hepes incubation buffer containing 1 mM MgCl2, 25 mM CaCl2, 0.025% NaN3, 1% bovine serum albumin (BSA) and 100 pM of ligand for 30 minutes at 25° C. The reaction is stopped by filtration and washing on a Whatman GF/C filter. The nonspecific binding is measured in the presence of 10^−6M human orexin B. The IC50 values (concentration inhibiting 50% of the binding of radioiodinated orexin A to its receptors) are low, less than 300 nM, in particular less than 100 nM and more particularly less than 30 nM.

Experiment [2] deals with T2, human orexin 1 receptors (Homo sapiens, UniProt O43613).
T2 construct: expressed in transfected cells; host or cells: CHO cells (membrane preparation)
T2 sequence (O43613 1-425): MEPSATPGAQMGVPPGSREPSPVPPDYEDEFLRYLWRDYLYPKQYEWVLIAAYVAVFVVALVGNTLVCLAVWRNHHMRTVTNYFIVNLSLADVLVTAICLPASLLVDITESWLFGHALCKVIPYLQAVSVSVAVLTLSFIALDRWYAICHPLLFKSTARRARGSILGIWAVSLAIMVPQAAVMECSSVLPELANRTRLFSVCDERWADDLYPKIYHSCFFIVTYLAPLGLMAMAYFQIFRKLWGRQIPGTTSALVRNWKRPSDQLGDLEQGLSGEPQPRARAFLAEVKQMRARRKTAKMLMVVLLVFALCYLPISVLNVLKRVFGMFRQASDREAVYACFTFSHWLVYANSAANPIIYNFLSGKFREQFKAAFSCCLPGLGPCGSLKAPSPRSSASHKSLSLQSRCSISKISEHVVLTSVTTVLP
Description: in vitro binding test, same technique, radioiodinated orexin A, membrane preparation of CHO cells. The following applies: Table 2, read-out: IC50 OX 1. As for the experimental part: as §1
The affinity of the compounds according to the invention for the orexin 1 receptors was also studied in an in vitro binding test according to the same technique using radioiodinated orexin A as ligand in a membrane preparation of CHO cells expressing the human orexin 1 receptors. The compounds according to the invention have little or no affinity for the orexin 1 receptors.

Where [3] appears, read: Table 2, in vitro binding test, 100 pM radioiodinated orexin A, 30 minutes at 25° C.

One may read the IC50 as the point on the concentration scale where inhibition reaches its midpoint. For `COc1ccc(S(=O)(=O)N(c2c(Cc3c(F)cccc3F)cccc2OC)[C@H]2CCNC2)cc1OC` (atropisomer, axis not shown) [Compound 6, N-[2-(2,6-difluorobenzyl)-6-methoxyphenyl]-3,4-dimethoxy-N-[(3S)-pyrrolidin-3-yl]benzenesulfonamide hydrochloride], in experiment [1] (Table 1, assay not given), the IC50 amounted to 9.1 nM.
On to `COc1ccc(S(=O)(=O)N(c2c(Cc3c(F)cccc3F)cccc2OC)[C@H]2CCNC2)cc1OC` (atropisomer, axis not shown) [Compound 7, N-[2-(2,6-difluorobenzyl)-6-methoxyphenyl]-3,4-dimethoxy-N-[(3S)-pyrrolidin-3-yl]benzenesulfonamide hydrochloride], for which the IC50 in experiment [1] (setting [3]) was 9 nM; in experiment [2] it was 103 nM.
With `COc1ccc(S(=O)(=O)N(c2ccc(Cl)cc2Cc2c(F)cccc2F)[C@H]2CCNC2)cc1OC` [Compound 1, N-[4-chloro-2-(2,6-difluorobenzyl)phenyl]-3,4-dimethoxy-N-[(3S)-pyrrolidin-3-yl]benzenesulfonamide hydrochloride], the results for the IC50 in experiment [1] (setting [3]) and in experiment [2] were 16.4 nM and 1380 nM, respectively.
Consider `COc1ccc(S(=O)(=O)N(c2c(Cc3ccccc3Cl)cccc2OC)[C@H]2CCNC2)cc1OC` [Compound 11, N-[2-(2-chlorobenzyl)-6-methoxyphenyl]-3,4-dimethoxy-N-[(3S)-pyrrolidin-3-yl]benzenesulfonamide hydrochloride], for which, in experiment [1] (Table 1, assay not given), the IC50 turned out to be 7.2 nM.
With `COc1ccc(S(=O)(=O)N(c2c(Cc3c(F)cccc3F)cccc2OC)[C@H]2CCC[C@@H]2N)cc1OC` [Compound 14, N-[(1S,2S)-2-aminocyclopentyl]-N-[2-(2,6-difluorobenzyl)-6-methoxyphenyl]-3,4-dimethoxy-benzenesulfonamide hydrochloride], the IC50 in experiment [1] (Table 1, assay not given) worked out at 10 nM.
Take `COc1ccc(S(=O)(=O)N(c2c(Cc3c(F)cccc3F)cc(Cl)cc2OC)[C@H]2CCNC2)cc1OC` [Compound 18, N-[2-(2,6-difluorobenzyl)-4-chloro-6-methoxyphenyl]-3,4-dimethoxy-N-[(3S)-pyrrolidin-3-yl]benzenesulfonamide hydrochloride]: the IC50 in experiment [1] (Table 1, assay not given) is 12 nM.
